This assay relates to panelist. The assay can be described thus: Odor detection threshold (ODT) by gas chromatograph with sniff port. The conditions noted are these: GC sniff port, average across panelists. Also noted: species or system human. As to the method:
Odor detection thresholds are determined using a gas chromatograph. The gas chromatograph is calibrated to determine the exact volume of material injected by the syringe, the precise split ratio, and the hydrocarbon response using a hydrocarbon standard of known concentration and chain-length distribution. The air flow rate is accurately measured and, assuming the duration of a human inhalation to last […], the sampled volume is calculated. […] A panelist sniffs the GC effluent and identifies the retention time when odor is noticed. The average across all panelists determines the threshold of noticeability. […] Typical gas chromatograph parameters for determining odor detection thresholds are listed below. • GC: 5890 Series II with FID detector • 7673 Autosampler • Column: J&W Scientific DB-1 • Length 30 meters ID 0.25 mm film thickness 1 micron • Method: • Split Injection: 17/1 split ratio • Autosampler: 1.13 microliters per injection • Column Flow: 1.10 mL/minute • Air Flow: 345 mL/minute • Inlet Temp. 245° C. • Detector Temp. 285° C. • Temperature Information • Initial Temperature: 50° C. • Rate: 5 C/minute • Final Temperature: 280° C. • Final Time: 6 minutes • Leading assumptions: • (i) 12 seconds per sniff • (ii) GC air adds to sample dilution A-High Impact Accord (“HIA”) Perfume Ingredients of Class 1
`CC1C(C)(C)C2=C(C(=O)CCC2)C1(C)C` (stereo not shown) [6,7Dihydro-1,1,2,3,3-Penta-Methyl-4(5H)-Indanone] gave an ODT below 50 PPB.

Compound `CCOC(=O)C(C)CC` (stereo not shown) [Ethyl-2-methyl Butyrate] yielded an ODT below 50 PPB.

`CCCCCCCCCCC=CC#N` [Tridecene-2-nitrile] returned an ODT below 50 PPB.

`O=C1CCCC=CCCCCCCCCCC1` [5-Cyclohexadecenone-1] yielded an ODT below 50 PPB.

`CCCC(O)CCC1C(C)CCCC1(C)C` (stereo not drawn) [Cyclohexane Propanol 2,2,6 Trimethyl-Alpha-Propyl.] registered an ODT below 50 PPB.

As for `CCC12CCC3C(C)(C)CCCC3(C)C1CCO2` (stereo not shown) [Naphtho(2.1-B)-furan,3A-Ethyl Dodecahydro-6,6,9A-Trimethyl], the ODT is reported as below 50 PPB.

In the case of `CC(=O)OC1CC2CC1C1CC=CC21` (stereo not shown) [Flor Acetate], the ODT is recorded as below 50 PPB.

Compound `CC(C)=CC1CC(C)CCO1` (stereo not shown) [Rose Oxide] gave an ODT below 50 PPB.

In turn, Oxacyclohexadecen-2-one gave an ODT below 50 PPB.

3-Methyl-4(5)-Cyclopentadecenone displayed an ODT below 50 PPB.

For the compound `CCCCCCC#CC(=O)OC` [Methyl Octine Carbonate], the ODT was below 50 PPB.

`C=CC(C)(O)CCC=C(C)C` (stereo not shown) [Linalool] had an ODT below 50 PPB.

On to `CCC(=O)OC1CC2CC1C1CC=CC21` (stereo not shown) [Frutene], for which the ODT is on record as below 50 PPB.

With `CC/C=C\CCOC(=O)c1ccccc1O` [Cis-3-Hexenyl Salicylate], the ODT was below 50 PPB.

As for `CC1=CC(C)C(C=O)CC1` (stereo not shown) [Cyclal C], the ODT is on record as below 50 PPB.

Turning to `CC(CO)C1CCCCCCCCCCC1` (stereo not shown) [2-(Cyclododecyl)-propan-1-ol], the ODT is recorded as below 50 PPB.

`CC(=O)/C=C/C1=C(C)CCCC1(C)C` [Ionone Beta] yielded an ODT below 50 PPB.

In turn, `CC(=O)C1(C)CC2=C(CCCC2(C)C)CC1C` (stereo not shown) [7,Acetyl,1,2,3,4,5,6,7,8-Octahydro-1,1,6,7-Tetra Methyl Naphthalene] registered an ODT below 50 PPB.

In turn, `CC1=CCC(C=CC(C)C(C)O)C1(C)C` (stereo not shown) [3-Methyl-5-(2,2,3,trimethyl-3-cyclopenten-1-yl)-4-penten-2-ol] gave an ODT below 50 PPB.

On to `COc1ccc(C=O)cc1` [Anisic Aldehyde], for which the ODT is reported as below 50 PPB.

`CC1=CCC(C(C)CC2CCCC2=O)CC1` (stereo not shown) [2-(2-(4 methyl-3-Cyclohexen-1-yl)propyl)-cyctopentanone.] showed an ODT below 50 PPB.

The compound `CC1COC(C)(c2ccc3c(c2)C(C)(C)CCC3(C)C)O1` (stereo not shown) [2,4,Dimethyl-2-(1,1,4,4 tetramethyl) tetralin-6-yl)-13-dioxolane] came in with an ODT below 50 PPB.

Source of the values: patent US6869923B1, “Perfume compositions” (Procter & Gamble Company, priority 1998, dated 2005).
